Entries after “also recorded” stand apart in the source; their conditions may differ. No end group written: not given here.
Legend:
P. aeruginosa = test: Electron microscopy of peptide-treated bacteria; type: cell-based; conditions: 30 μM, 2 h, 37° C.
Protocol: (A) Permeabilizing effects of peptides on E. coli. Bacteria were incubated with the NLF20 and permeabilization was assessed using the impermeant probe FITC. (B) Electron microscopy analysis. P. aeruginosa and S. aureus bacteria were incubated for 2 h at 37° C. with 30 μM of NLF20 and visualized by negative staining. LL-37 is shown for comparison. Scale bar represents 1 μm. Control; Buffer control.

[1] = system: P. aeruginosa, E. coli, S. pyogenes, S. aureus, C. albicans; test: Antibacterial effects in human blood infected by bacteria; type: cell-based; conditions: 50% citrate blood
Protocol: (§1) (A) Antibacterial effects of NLF20 in presence of the indicated bacteria in human blood (made 50% in PBS) are presented. The indicated microbes (2×10^8 cfu/ml) were added to 50% citrate blood, followed by addition of peptide at 30, 60 or 120 μM. The number of cfu was determined after an incubation period of 1 h. (B) In an identical setup, hemolysis effects were studied. The bacteria were added to 50% citrate blood, followed by addition of peptide. Hemolysis was assessed after 1 hour.
E. coli ATCC 25922, P. aeruginosa 15159, or S. aureus ATCC 29213 bacteria were grown to mid-logarithmic phase in Todd-Hewitt (TH) medium (Becton and Dickinson, Maryland, USA). The microorganisms were then washed and diluted in 10 mM Tris, pH 7.4 containing 5 mM glucose. Following this, bacteria (50 μl; 2×10^6 cfu/ml) were incubated, at 37° C. for 2 hours, with NLF20 or LL-37 (at 0.03, 0.06, 0.3, 0.6, 3, 6, 30, 60 μM) in 10 mM Tris, 0.15 M NaCl, with or without 20% human citrate-plasma. […] To quantify the bactericidal activity, serial dilutions of the incubation mixtures were plated on TH agar, followed by incubation at 37° C. overnight and the number of colony-forming units was determined. […] Significance was determined using the statistical software SigmaStat (SPSS Inc., Chicago, Ill., USA).

human blood = test: Hemolysis in human blood infected by bacteria; type: cell-based; conditions: peptide dose of 120 μM
Protocol: as §1
In the experiments with blood infected by bacteria, citrate-blood was diluted (1:1) with PBS.

P. aeruginosa 15159 = test: P. aeruginosa infection model (sepsis); type: in vivo, mice
Protocol: Mice were inoculated with P. aeruginosa and KYE28 (0.5 mg) was administrated sc 1 h after infection. (A) Bacterial counts in the indicated organs were analyzed after a time period of 4, 8, and 12 h. (B) In parallel, the indicated cytokines were analyzed in blood.
(A) Bacterial counts in the indicated organs were analyzed after a time period of 12 h. (B) Effects on platelets, lymphocytes, monocytes and neutrohils are shown. (C) In parallel, the indicated cytokines were analyzed in blood. […]
(A) P. aeruginosa 15159 bacteria (in PBS, ˜2×10^4 or 2×10^8 cfu/ml) were kept on ice until injection. Hundred microliter of the bacterial suspension were injected intraperitoneally (ip) into C57/Bl6 mice. At ˜10 min after the bacterial injection, 0.5 mg of NLF20 or PBS alone was injected ip into the mice. Liver, spleen and kidney were harvested, placed on ice, homogenized, and colony-forming units (cfu) determined 12 h after infection. (B) In a similar infection model (2×10^8 cfu/ml of P. aeruginosa) intraperitoneal (ip) administration after 30 min was compared with subcutaneous injection (sc) after 1 h. 0.5 mg of NLF20 was used. […] Mice were injected intraperitoneally with P. aeruginosa as above followed by ip or sc administration of NLF20 (500 μg). Survival was followed for 7 days. […] (D) NLF20 effects on TNF-α and IL-10 were analyzed in blood. (E) Thrombocytes were analyzed in blood. Treatment with NLF20 (ip and sc) increased thrombocyte levels.
Animals were Housed Under Standard Conditions of Light and Temperature and Had free access to standard laboratory chow and water. P. aeruginosa 15159 bacteria were grown to logarithmic phase (OD620˜0.5), harvested, washed in PBS, diluted in the same buffer to 2×10^8 cfu/ml, and kept on ice until injection. Hundred microliter of the bacterial suspension was injected intraperitoneally (i.p.) into female bI6 mice. […] In order to study bacterial dissemination to target organs spleen, liver and kidney were harvested, placed on ice, homogenized, and colony-forming units determined. The P-value was determined using the Mann-Whitney U-test. Data from three independent experiments were pooled.
Animals were housed under standard conditions of light and temperature AND had free access to standard laboratory chow and water. P. aeruginosa 15159 bacteria were grown to logarithmic phase (OD620˜0.5), harvested, washed in PBS, diluted in the same buffer to 2×10^8 cfu/ml, and kept on ice until injection. Hundred microliter of the bacterial suspension was injected intraperitoneally (i.p.) into female bI6 mice. Immediately subsequent the bacterial injection, 0.5 mg NLF20 (in 10 mM Tris, pH 7.4) or buffer alone was injected i.p. into the mice. In order to study bacterial dissemination to target organs spleen, liver and kidney were harvested, placed on ice, homogenized, and colony-forming units determined. The P-value was determined using the Mann-Whitney U-test. Data from three independent experiments were pooled.

RAW 264.7 macrophages = test: Cytokines in supernatants of LPS-stimulated macrophages; type: cell-based, mouse; conditions: 10 ng/ml E. coli LPS
Protocol: RAW 264.7 macrophages were stimulated with 10 ng/ml E. coli LPS in combination with indicated concentrations of the two peptides. (B) Similar as above, but using P. aeruginosa LPS(C) KYE28 reduced TNF-αproduction, MCP-1 and IL-10 production in macrophages. RAW 264. 7 cells were stimulated with 10 ng/ml E. coli LPS and cytokines were analysed in the cell supernatants
The cytokines IL-6, IL-10, MCP-1, INF-γ, and TNF-α were measured in cell culture supernatants from RAW264.7 cells and plasma from mice injected with LPS or P. aeruginosa (with or without peptide treatment) using the Cytometric bead array; Mouse Inflammation Kit (Becton Dickinson AB) according to the manufacturer's instructions. All plasma samples were stored at −20° C. before the analysis.

[2] = 0.5 mg sc 1 h after infection, particularly after 12 h
[3] = sc 1 h, or 1 and 7 h after inoculation

## NLFRKLTHRLFRRNFGYTLR [NLF20]
P. aeruginosa
  Membrane damage by electron microscopy: extensive membrane damage
[1]; P. aeruginosa, E. coli, S. pyogenes, peptide dose 120 μM, 1 h
  Antibacterial effect in infected human blood: almost complete eradication of P. aeruginosa, E. coli, as well as S. pyogenes
[1]; S. aureus and C. albicans
  Antibacterial/antifungal effect in infected human blood: not active
Human blood
  Accompanying hemolysis in infected human blood: ≤ 2%
P. aeruginosa 15159; 0.5 mg given subcutaneously 1 h after infection
  Bacterial cfu in organs: reductions in cfu
P. aeruginosa 15159; 0.5 mg ip shortly after bacterial injection, 12 h
  Bacterial numbers in spleen, liver and kidney: significantly lower bacterial numbers in the spleen, liver, and kidney
P. aeruginosa 15159; ip and sc
  Thrombocytes in blood: thrombocytes were increased
P. aeruginosa 15159; ip and sc administration
  IL-10 in blood: showing an increase (both administrations)
P. aeruginosa 15159; ip treatment
  TNF-α in blood: a reduction was noted after ip treatment
P. aeruginosa 15159; one dose (500 μg) ip, followed 7 days
  Mortality: significantly reduce mortality
P. aeruginosa 15159; one dose (500 μg) sc, followed 7 days
  Survival: prolong survival
P. aeruginosa 15159; subcutaneous injection after 1 h and then every 24 h for the three following days (FIG. 21)
  Survival: significantly increases survival

## KYEITTIHNLFRKLTHRLFRRNFGYTLR [KYE28]
RAW 264.7 macrophages
  IL-10 production: reduced
  MCP-1 production: reduced
  TNF-α production: reduced
P. aeruginosa 15159; 0.5 mg sc 1 h after infection, 4, 8 and 12 h
  Bacterial levels in spleen, kidney and liver: did not significantly reduce bacterial levels
P. aeruginosa 15159; 0.5 mg sc 1 h after infection, after 12 h
  IL-10 in blood: not significantly modulated
P. aeruginosa 15159; [2]
  IFN-γ in blood: concomitant reduction of cytokine levels
  IL-6 in blood: concomitant reduction of cytokine levels
  MCP-1 in blood: concomitant reduction of cytokine levels
  TNF-α in blood: concomitant reduction of cytokine levels
P. aeruginosa 15159; one dose, sc 1 h after inoculation
  Survival: did not increase survival
P. aeruginosa 15159; one dose, sc 1 h after inoculation, 12 h
  Bacterial cfu in organs: did not significantly reduce bacterial cfu
P. aeruginosa 15159; repeated treatment, sc 1 and 7 h after inoculation, 12 h
  Bacterial cfu in organs: moderate reduction of cfu numbers
P. aeruginosa 15159; [3]
  Cytokines in blood: dramatic and highly significant reduction of cytokines in blood
  Platelets: slight, but significant increase in platelets
P. aeruginosa 15159; two-dose regime, sc 1 and 7 h after infection
  Survival / mortality: significantly reduced mortality; also recorded: significant delay of septic symptoms as well as delayed mortality, and eventually also increase in survival

— patent publication US9169315B2, “Heparin cofactor II fragments with anti-inflammatory and anti-coagulant activity” (XIMMUNE AB, priority 2009, dated 2015)
